Laboratory results as given in BigSolDB 2.1.

## Oc1c(Cl)cc(Cl)c2cccnc12
In 1,4-dioxane, 293.15 K
  solubility (mole fraction): 0.00523
In 1,4-dioxane, 298.15 K
  solubility (mole fraction): 0.0062
In 1,4-dioxane, 303.15 K
  solubility (mole fraction): 0.00736
In 1,4-dioxane, 308.15 K
  solubility (mole fraction): 0.0089
In 1,4-dioxane, 313.15 K
  solubility (mole fraction): 0.0106
In 1,4-dioxane, 318.15 K
  solubility (mole fraction): 0.0123
In 1,4-dioxane, 323.15 K
  solubility (mole fraction): 0.0146
In 1,4-dioxane, 328.15 K
  solubility (mole fraction): 0.017
In 1,4-dioxane, 333.15 K
  solubility (mole fraction): 0.0193
In DMF, 293.15 K
  solubility (mole fraction): 0.0132
In DMF, 298.15 K
  solubility (mole fraction): 0.016
In DMF, 303.15 K
  solubility (mole fraction): 0.0194
In DMF, 308.15 K
  solubility (mole fraction): 0.024
In DMF, 313.15 K
  solubility (mole fraction): 0.0294
In DMF, 318.15 K
  solubility (mole fraction): 0.0347
In DMF, 323.15 K
  solubility (mole fraction): 0.0408
In DMF, 328.15 K
  solubility (mole fraction): 0.0478
In DMF, 333.15 K
  solubility (mole fraction): 0.0555
In DMSO, 293.15 K
  solubility (mole fraction): 0.00296
In DMSO, 298.15 K
  solubility (mole fraction): 0.00378
In DMSO, 303.15 K
  solubility (mole fraction): 0.0048
In DMSO, 308.15 K
  solubility (mole fraction): 0.00633
In DMSO, 313.15 K
  solubility (mole fraction): 0.00793
In DMSO, 318.15 K
  solubility (mole fraction): 0.00997
In DMSO, 323.15 K
  solubility (mole fraction): 0.0123
In DMSO, 328.15 K
  solubility (mole fraction): 0.0154
In DMSO, 333.15 K
  solubility (mole fraction): 0.0188
In NMP, 293.15 K
  solubility (mole fraction): 0.00576
In NMP, 298.15 K
  solubility (mole fraction): 0.00683
In NMP, 303.15 K
  solubility (mole fraction): 0.00823
In NMP, 308.15 K
  solubility (mole fraction): 0.00963
In NMP, 313.15 K
  solubility (mole fraction): 0.0113
In NMP, 318.15 K
  solubility (mole fraction): 0.0137
In NMP, 323.15 K
  solubility (mole fraction): 0.0162
In NMP, 328.15 K
  solubility (mole fraction): 0.0188
In NMP, 333.15 K
  solubility (mole fraction): 0.022
In water, 293.15 K
  solubility (mole fraction): 1.02e-06
In water, 298.15 K
  solubility (mole fraction): 1.48e-06
In water, 303.15 K
  solubility (mole fraction): 2.03e-06
In water, 308.15 K
  solubility (mole fraction): 2.82e-06
In water, 313.15 K
  solubility (mole fraction): 3.82e-06
In water, 318.15 K
  solubility (mole fraction): 5e-06
In water, 323.15 K
  solubility (mole fraction): 6.86e-06
In water, 328.15 K
  solubility (mole fraction): 8.91e-06
In water, 333.15 K
  solubility (mole fraction): 1.15e-05
